Laboratory results taken from ChEMBL document CHEMBL1134974, “Diaza- and triazachrysenes: potent topoisomerase-targeting agents with exceptional antitumor activity against the human tumor xenograft, MDA-MB-435” (Bioorg Med Chem Lett, 2002).

Experiments:
Mus musculus [1] = assay: In vivo antitumor activity in NCR-nude-nude mice inoculated with 1.2 E6 -1.5 E6 MDA-MB-435 cells; after day 21 with an average dose of 0.27 mg/mouse (po); type: functional
RPMI 8402 [2] = assay: Cytotoxicity using camptothecin-resistant variant of RPM18402 (CPT-K5) possessing functional, but mutant TOP-1; type: cell-based; conditions: Homo sapiens
Mus musculus [3] = assay: In vivo antitumor activity in NCR-nude-nude mice inoculated with 1.2 E6 -1.5 E6 MDA-MB-435 cells; after day 13 with an average dose of 0.22 mg/mouse (ip); type: functional
Mus musculus [4] = assay: In vivo antitumor activity in NCR-nude-nude mice inoculated with 1.2 E6 -1.5 E6 MDA-MB-435 cells; after day 7 with an average dose of 0.27 mg/mouse (po); type: functional
[5] = target: T1, DNA topoisomerase 1 (Homo sapiens) (UniProt P11387); assay: TOP-1 mediated DNA cleavage measured as effective concentration relative to topotecan = 1; type: functional
T1 sequence (whole entry): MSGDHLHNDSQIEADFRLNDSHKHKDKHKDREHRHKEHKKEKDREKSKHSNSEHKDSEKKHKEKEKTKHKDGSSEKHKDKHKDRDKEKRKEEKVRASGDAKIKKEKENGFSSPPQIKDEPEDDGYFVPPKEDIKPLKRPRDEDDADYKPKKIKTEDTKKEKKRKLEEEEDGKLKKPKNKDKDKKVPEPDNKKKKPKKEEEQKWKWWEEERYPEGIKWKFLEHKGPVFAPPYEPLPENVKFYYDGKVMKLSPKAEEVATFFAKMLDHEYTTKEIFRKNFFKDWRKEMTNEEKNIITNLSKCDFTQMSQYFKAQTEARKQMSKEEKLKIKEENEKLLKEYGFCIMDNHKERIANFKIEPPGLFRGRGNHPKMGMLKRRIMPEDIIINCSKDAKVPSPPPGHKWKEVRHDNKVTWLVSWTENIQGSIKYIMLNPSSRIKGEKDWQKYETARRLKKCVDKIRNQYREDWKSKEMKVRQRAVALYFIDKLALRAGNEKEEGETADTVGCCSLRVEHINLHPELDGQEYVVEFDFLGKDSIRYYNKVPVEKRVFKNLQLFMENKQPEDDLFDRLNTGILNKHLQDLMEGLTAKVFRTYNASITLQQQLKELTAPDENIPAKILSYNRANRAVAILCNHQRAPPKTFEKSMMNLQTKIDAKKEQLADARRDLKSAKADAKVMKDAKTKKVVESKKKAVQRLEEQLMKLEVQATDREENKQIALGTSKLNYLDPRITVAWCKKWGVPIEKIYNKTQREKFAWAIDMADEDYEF

RPMI 8402 [6] = assay: Cytotoxicity against human lymphoblast tumor cell line RPM18402; type: functional, cell-based
Mus musculus [7] = assay: In vivo antitumor activity in NCR-nude-nude mice inoculated with 1.2 E6 -1.5 E6 MDA-MB-435 cells; after day 31 with an average dose of 0.22 mg/mouse (ip); type: functional
Mus musculus [8] = assay: In vivo antitumor activity in NCR-nude-nude mice inoculated with 1.2 E6 -1.5 E6 MDA-MB-435 cells; after day 21 with an average dose of 0.22 mg/mouse (ip); type: functional
Mus musculus [9] = assay: In vivo antitumor activity in NCR-nude-nude mice inoculated with 1.2 E6 -1.5 E6 MDA-MB-435 cells; after day 13 with an average dose of 0.27 mg/mouse (po); type: functional
Mus musculus [10] = assay: In vivo antitumor activity in NCR-nude-nude mice inoculated with 1.2 E6 -1.5 E6 MDA-MB-435 cells; after day 7 with an average dose of 0.22 mg/mouse (ip); type: functional
[11] = target: DNA topoisomerase II (Homo sapiens) (UniProt P11388+Q02880); assay: TOP-2 mediated DNA cleavage measured as effective concentration relative to VM26; type: functional
Mus musculus [12] = assay: In vivo antitumor activity in NCR-nude-nude mice inoculated with 1.2 E6 -1.5 E6 MDA-MB-435 cells; after day 31 with an average dose of 0.27 mg/mouse (po); type: functional
Mus musculus [13] = assay: In vivo antitumor activity in NCR-nude-nude mice inoculated with 1.2 E6 -1.5 E6 MDA-MB-435 cells after day 21 with an average dose of 0.73 mg/mouse (ip); type: functional
Mus musculus [14] = assay: In vivo antitumor activity in NCR-nude-nude mice inoculated with 1.2 E6 -1.5 E6 MDA-MB-435 cells after day 13 with an average dose of 0.78 mg/mouse (po); type: functional
Mus musculus [15] = assay: In vivo antitumor activity in NCR-nude-nude mice inoculated with 1.2 E6 -1.5 E6 MDA-MB-435 cells after day 7 with an average dose of 0.73 mg/mouse (ip); type: functional
Mus musculus [16] = assay: In vivo antitumor activity in NCR-nude-nude mice inoculated with 1.2 E6 -1.5 E6 MDA-MB-435 cells after day 21 with an average dose of 0.78 mg/mouse(po); type: functional
Mus musculus [17] = assay: In vivo antitumor activity in NCR-nude-nude mice inoculated with 1.2 E6 -1.5 E6 MDA-MB-435 cells after day 31 with an average dose of 0.78 mg/mouse (po); type: functional
Mus musculus [18] = assay: In vivo antitumor activity in NCR-nude-nude mice inoculated with 1.2 E6 -1.5 E6 MDA-MB-435 cells after day 31 with an average dose of 0.73 mg/mouse (ip); type: functional
Mus musculus [19] = assay: In vivo antitumor activity in NCR-nude-nude mice inoculated with 1.2 E6 -1.5 E6 MDA-MB-435 cells after day 7 with an average dose of 0.78 mg/mouse (po); type: functional
Mus musculus [20] = assay: In vivo antitumor activity in NCR-nude-nude mice inoculated with 1.2 E6 -1.5 E6 MDA-MB-435 cells after day 13 with an average dose of 0.73 mg/mouse (ip); type: functional
Mus musculus [21] = assay: In vivo antitumor activity in NCR-nude-nude mice inoculated with 1.2 E6 -1.5 E6 MDA-MB-435 cells; after day 21 with an average dose of 13.88 mg/mouse (ip); type: functional
Mus musculus [22] = assay: In vivo antitumor activity in NCR-nude-nude mice inoculated with 1.2 E6 -1.5 E6 MDA-MB-435 cells; after day 7 with an average dose of 13.88 mg/mouse (ip); type: functional
Mus musculus [23] = assay: In vivo antitumor activity in NCR-nude-nude mice inoculated with 1.2 E6 -1.5 E6 MDA-MB-435 cells; after day 13 with an average dose of 13.88 mg/mouse (ip); type: functional
Mus musculus [24] = assay: In vivo antitumor activity in NCR-nude-nude mice inoculated with 1.2 E6 -1.5 E6 MDA-MB-435 cells; after day 31 with an average dose of 13.88 mg/mouse (ip); type: functional

Row | SMILES | REC [5] | REC [11] | IC50 (RPMI 8402 [2]) [nM] | IC50 (RPMI 8402 [6]) [nM] | other results
1 | COc1cc2c(=O)n(CCN(C)C)c3c4cc5c(cc4nnc3c2cc1OC)OCO5 | 0.3 | > 100 | 600 | 1 | Average tumor volume (Mus musculus [1]): 207 mm**3; Average tumor volume (Mus musculus [3]): 211 mm**3; Average tumor volume (Mus musculus [4]): 154 mm**3; Average tumor volume (Mus musculus [7]): 403 mm**3; Average tumor volume (Mus musculus [8]): 252 mm**3; Average tumor volume (Mus musculus [9]): 183 mm**3; Average tumor volume (Mus musculus [10]): 167 mm**3; Average tumor volume (Mus musculus [12]): 200 mm**3
2 | COc1cc([C@@H]2c3cc4c(cc3[C@@H](O[C@@H]3O[C@@H]5CO[C@@H](c6cccs6)O[C@H]5[C@H](O)[C@H]3O)[C@H]3COC(=O)[C@H]23)OCO4)cc(OC)c1O [TENIPOSIDE] | > 1000 | > 100 | 280 | 220 | 
3 | CCCCn1c(=O)c2cc(OC)c(OC)cc2c2nnc3cc4c(cc3c21)OCO4 | 1 | > 100 | 10000 | 4 | 
4 | COc1cc2c(=O)n(CC3CCCO3)c3c4cc5c(cc4ncc3c2cc1OC)OCO5 (configuration not stated) | 200 | > 100 | > 10000 | 150 | 
5 | CCc1c2c(nc3ccc(OC(=O)N4CCC(N5CCCCC5)CC4)cc13)-c1cc3c(c(=O)n1C2)CCC(=O)C3(O)CC (configuration not stated) |  | > 100 | > 10000 |  | Average tumor volume (Mus musculus [21]): 36 mm**3; Average tumor volume (Mus musculus [22]): 118 mm**3; Average tumor volume (Mus musculus [23]): 116 mm**3; Average tumor volume (Mus musculus [24]): 11 mm**3
6 | COc1cc2c(=O)n(C(C)CN(C)C)c3c4cc5c(cc4ncc3c2cc1OC)OCO5 (configuration not stated) | > 1000 | > 100 | 3400 | 570 | 

Second part, led by results:

Row | REC [5] | REC [11] | SMILES | IC50 (RPMI 8402 [2]) [nM] | IC50 (RPMI 8402 [6]) [nM] | other results
7 |  | > 100 | COc1cc2c(=O)n(CCN(C)C)c3c4cc5c(cc4ncc3c2cc1OC)OCO5 | 900 | 2 | Average tumor volume (Mus musculus [13]): 65 mm**3; Average tumor volume (Mus musculus [14]): 148 mm**3; Average tumor volume (Mus musculus [15]): 123 mm**3; Average tumor volume (Mus musculus [16]): 99 mm**3; Average tumor volume (Mus musculus [17]): 62 mm**3; Average tumor volume (Mus musculus [18]): 40 mm**3; Average tumor volume (Mus musculus [19]): 159 mm**3; Average tumor volume (Mus musculus [20]): 84 mm**3
8 | 1 | > 100 | CC[C@@]1(O)C(=O)OCc2c1cc1n(c2=O)Cc2cc3c(CN(C)C)c(O)ccc3nc2-1 [TOPOTECAN] | > 10000 | 12 | 
9 | 1000 | > 100 | COc1cc2c(=O)n(C(C)CN(C)C)c3c4cc5c(cc4nnc3c2cc1OC)OCO5 (configuration not stated) | 3600 | 260 | 
10 | 30 | > 100 | COc1cc2c(=O)n(CC3CCCO3)c3c4cc5c(cc4nnc3c2cc1OC)OCO5 (configuration not stated) | > 10000 | 10 | 
